One series has as its system M. Bahia. Briefly: Static renewal toxicity test of treated seawater. The class given is in vivo. As to conditions: 150 PPM of THPS. On the procedure:
(§1) Three of the most promising special blends were tested 249C, 246C, and 283C. Galveston seawater was treated separately with 249C, 246C and 283C at 3,000 PPM, 2,000 PPM and 1,450 PPM respectively. The treated water was then subjected to a static renewal toxicity test (using Mysid and Menidid species). The EPA requires this toxicity test for water discharged into the Gulf of Mexico.

The next series has as its system M. Beryllina. The series is described as follows: Static renewal toxicity test of treated seawater. The class given is in vivo. To be noted: 150 PPM of THPS. On the procedure: as §1
For series [1], the system named is Sulfate Reducing Bacteria (SRB). The series is described as follows: Evaluation of biocides in pH adjusted medium containing SRB, with coupons. The series is classed as cell-based. To be noted: for Log of Bacterial Cells/ml: SRB medium. On the procedure:
(§2) In these experiments, SRB or FAAPB cultures were treated with various concentrations of biocides, after raising the pH to 9.8-10.00. The bacterial growth in the treated samples was estimated by the serial dilution method. The visual appearance of coupons in treated and untreated samples was recorded. An aldehyde and phosphonium quat were used for biocides.

In series [2] the test system is SRB. Briefly: Time kill study of special blends, SRB culture. The series is classed as cell-based. To be noted: 50 PPM (pH ~7). On the procedure:
(§3) More than thirty special blends containing NaOH, oxygen scavenger and scale inhibitor were made. Time kill studies were conducted to evaluate the effect of these special blends on bacterial growth. For the time kill studies cultures of SRB and anaerobic bacteria as well as filtered Galveston seawater were used. Galveston seawater was filtered through 50 μm filter. The time kill studies were basically the same as in the raised pH studies described earlier. The only difference was that in these studies, the pH was raised by the special blends and natural seawater was included in addition to bacterial cultures. Usually, 1,500 to 3,000 PPM of the special blends were used to raise the pH to 9.6-9.8. In some experiments, the seawater was treated only with NaOH or oxygen scavenger for comparison purposes. A piece of mild carbon steel coupon (1″×0.3″) was inserted into the treated water to monitor MIC and corrosion in all of the experiments.
(§4) The bacterial growth was monitored for 20 days. The monitoring of coupons in the treated samples continued for weeks to months. The products that inhibited the bacterial growth and kept the coupons clean were selected. These selected products were re-evaluated using the bacterial cultures and the filtered seawater.

The subject of the next series is anaerobic bacteria. The series is described as follows: Time kill study of special blends, anaerobic bacteria culture. The series is classed as cell-based. As to conditions: 50 PPM (pH ~7). On the procedure: as §3, §4
Series [3] deals with SRB. Briefly: Effect of special blends on SRB growth in natural (Galveston) seawater. The class given is cell-based. To be noted: 25 PPM. On the procedure: as §3, §4
Series [4] in a line: Deactivation of biocides / biocide residual in Galveston seawater. The class given is physicochemical. On the procedure: The pH of fresh water or seawater was adjusted and desired concentrations of biocides were added. The concentration of biocides in the water was measured periodically. Such monitoring provided information on the deactivation rate of biocides. To monitor the concentration of THPS and glutaraldehyde a LaMotte kit and a Glutatect kit were used, respectively. The LaMotte Company supplies the LaMotte kit. Alden Scientific manufactures the Glutatect kit. After the complete deactivation of biocide, the water was tested for aquatic toxicity.
Galveston seawater was treated with NaOH solution and with blends of NaOH and chemicals separately to raise the pH to 9-10.25. 12-100 PPM of 50% glutaraldehyde was added to each aliquot of pH-adjusted water. The treated water was left at room temperature. The concentration of glutaraldehyde was monitored for 9-20 days, using Glutatect kit. In another experiment, 100 PPM of 75% THPS was added to Galveston seawater following pH adjustment with NaOH. THPS concentration was monitored using a LaMotte Kit.

For series [5] the following is noted: anaerobic condition, cited from earlier work.
For series [6], the system named is sulfate reducting bacteria (SRB). Briefly: Time kill study of SRB cultures at raised pH (NaOH), serial dilution. The series is classed as cell-based. As to conditions: 200 PPM, combined with high pH. On the procedure: Cultures (in API media) of sulfate reducting bacteria (SRB) and facultative anaerobic acid producing bacteria (FAAPB) were treated separately with dilute NaOH solution to raise the pH of the culture to 9.8-10.00. The level of bacterial growth was estimated by the serial dilution method. In some experiments oxygen scavenger (ammonium bisulfite) was also included to see if it has any effect on bacterial growth. No coupons were used in these experiments.
as §2

Setting [7] is: Sea Water without pH adjustment, 100 PPM added.

Where two headings read alike, the source gives them in different places.

In the case of “tetrakis hydroxymethyl phosphonium sulfate [THPS]”, the LOEC with M. Bahia is <9.6/9.6%; in the series on M. Beryllina it was 24.6%. The NOEC with M. Bahia is <9.6/9.6%; in the series with M. Beryllina, 12.0%. Further, the “Log of Bacterial Cells/ml” value in [1] (Concentration 18.75) is reported as 0-3 Log of Bacterial Cells/ml; in series [1] (Concentration 37.5), 0-1 Log of Bacterial Cells/ml; in series [1] (Concentration 112.5), 0 Log of Bacterial Cells/ml; in the series with SRB [3], 1 Log of Bacterial Cells/ml. In the series on SRB [2], the “Log of Bacterial Cells/ml, SRB” value was 0-1 Log of Bacterial Cells/ml. In addition, the “Log of Bacterial Cells/ml, Anaerobic” value in the series with anaerobic bacteria is recorded as “≧3 Log of Bacterial Cells/ml”. Besides, the “PPM Biocide after 9 Days” value in [4] (Sea Water pH 10, 100 PPM added) is given as 14 PPM; in series [4] (setting [7]) it was 68 PPM. The “PPM Biocide at 0 Hr” value in series [4] (Sea Water pH 10, 100 PPM added) is 136 PPM; in series [4] (setting [7]), 132 PPM. The “PPM Biocide, 2 Days” value in series [4] (Sea Water pH 10, 100 PPM added) came out at 58 PPM; in [4] (setting [7]) it was 104 PPM. Moreover, the half life in series [5] (pH 7) is on record as 72 days; in [5] (pH 9), 7 days.
For the compound `N.O=S(O)O` [NH4HSO3, ammonium bisulfite], the “Log of SRB Cells/mL” value in series [6] (Experiment 1 (7 Days)) and in series [6] (Experiment 2 (7 Days)) was 2 Log of SRB Cells/mL throughout.
As for `O=CCCCC=O` [Glutaraldehyde, glutaraldehyde], the “Log of Bacterial Cells/ml” value in [1] (Concentration 12.5) is reported as 0 Log of Bacterial Cells/ml; in [1] (Concentration 25), 0-1 Log of Bacterial Cells/ml; in series [1] (Concentration 75) it was 0 Log of Bacterial Cells/ml; in [1] (Concentration 150) it was 0 Log of Bacterial Cells/ml; with SRB [3] it was 1 Log of Bacterial Cells/ml. Also, in series [1] (water with pH adjusted to 10), the “concentration sufficient to inhibit planktonic as well as sessile bacterial growths” value is 10-12 PPM. Moreover, the “Log of Bacterial Cells/ml, SRB” value with SRB [2] is on record as 0-1 Log of Bacterial Cells/ml. In addition, the “Log of Bacterial Cells/ml, Anaerobic” value in the series with anaerobic bacteria is reported as “≧3 Log of Bacterial Cells/ml”. For the same compound, the “PPM Biocide after 9 Days” value in [4] (Sea Water pH 10, 100 PPM added) was 10-20 PPM; in [4] (setting [7]), 20-40 PPM. In addition, the “PPM Biocide at 0 Hr” value in series [4] (Sea Water pH 10, 100 PPM added) is recorded as “˜40 PPM”; in series [4] (setting [7]) it was “˜40 PPM”. Also, the “PPM Biocide, 2 Days” value in [4] (Sea Water pH 10, 100 PPM added) was 20-40 PPM; in series [4] (setting [7]) it was 20-40 PPM. Moreover, the biocide residual entry in series [4] (seawater treated with special blends, after 5-10 days) is given as “below 5 PPM”.

These data come from patent US6815208B2, “Chemical treatment for hydrostatic test” (Champion Technologies, Inc., priority 2001, dated 2004).
